Assay results published in publication PMC4357465, “Tool Compounds Robustly Increase Turnover of an Artificial Substrate by Glucocerebrosidase in Human Brain Lysates” (PLoS ONE, 2015).

What was measured:
[1] = biological target: T1, GBA1 in mouse brain lysates (Mus musculus, UniProt P17439); experiment: GBA1 tissue assay, 4MUG turnover in mouse brain lysates; format: biochemical; conditions: mouse brain lysate 10 μg, with sodium taurocholate
T1 construct: Mouse brain was obtained from 4–7 month old C57BL/6J mice; from tissue; host or cells: brain of C57BL/6J mice
T1 sequence (P17439 20-515): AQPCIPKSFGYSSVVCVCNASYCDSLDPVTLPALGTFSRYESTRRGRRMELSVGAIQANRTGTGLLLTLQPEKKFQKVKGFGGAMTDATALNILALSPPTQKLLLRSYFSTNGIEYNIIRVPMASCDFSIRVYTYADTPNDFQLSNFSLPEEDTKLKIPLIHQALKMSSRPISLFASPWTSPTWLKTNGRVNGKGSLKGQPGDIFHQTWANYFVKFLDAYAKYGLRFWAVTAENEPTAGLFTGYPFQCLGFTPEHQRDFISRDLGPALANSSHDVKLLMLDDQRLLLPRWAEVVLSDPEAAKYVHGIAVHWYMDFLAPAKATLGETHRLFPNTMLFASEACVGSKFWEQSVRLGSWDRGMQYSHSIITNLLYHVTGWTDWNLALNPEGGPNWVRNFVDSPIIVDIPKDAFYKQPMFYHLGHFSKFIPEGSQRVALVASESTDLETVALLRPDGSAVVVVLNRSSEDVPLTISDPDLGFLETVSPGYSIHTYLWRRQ
Procedure: (§1) Human cortex was acquired from brain banks (Tissue Solutions: http://www.tissue-solutions.com; Proteogenex: http://www.proteogenex.com). Human cortex samples were obtained from deceased aged Caucasian subjects without any diagnosis of neurodegenerative disorders. Mouse brain was obtained from 4–7 month old C57BL/6J mice. All mouse experiments were performed in accordance with the specifications of both the National Institutes of Health Guide for the Care and Use of Laboratory Animals, studies were approved by Pfizer’s Internal Animal Care and Use Committee (IACUC). […] Samples were then centrifuged at 20,000g for 15 minutes at 4°C. Supernatant was collected, and used for activity assays and Western blots. Protein concentration was determined using the Pierce BCA protein assay kit. Tissue lysates and pellets were stored at -80°C until use. For enzymatic activity assays, lysates were subjected only to one free-thaw cycle. Independent replicates were obtained using brain lysates from either different human subjects or different mice. […] Brain tissue lysates were diluted to 0.4 μg/ μl of protein in the same homogenization buffer, as described above. 25 μl of diluted lysate was added to the plate (Costar, 7200567). Lysates were then incubated on ice in the presence or absence of a compound for 30 minutes. 100 μl of assay buffer was then added to the plate. The same assay buffer was used as in the cell free/recombinant experiments and processed as described above.

[2] = tested on: GBA1 in mouse brain lysates; experiment: as above; format: biochemical; conditions: mouse brain lysate 10 μg, without sodium taurocholate
Procedure: as §1

inhibition at 1 µM ([1]; 1 μM, read-out: % inhibition: + NaTc) [%]	% inhibition: + NaTc ([1]; 1mM)	SMILES	% inhibition: - NaTc ([2]; 1 μM)	% inhibition: - NaTc ([2]; 1mM)
82	–	OC[C@H]1CNC[C@@H](O)[C@@H]1O [Isofagomine, isofagomine]	21% ± 3%	–
–	82% ± 1%	O[C@H]1[C@H](O)[C@@H](O)[C@@H]2O[C@@H]2[C@@H]1O [CBE]	–	32% ± 4%
